System: E. coli, ATCC #51813
Assay: Antibacterial efficacy test, ATP Relative Light Unit (RLU) counts
Assay type: cell-based
Procedure: The NIST nanoparticles are formed by a chemical reduction process that utilizes citrate as reducing and capping agent.
Relative Light Unit (RLU) counts were recorded at 12 hours and 24 hours post treatment. RLU measurements were carried out using a Hygiena SystemSURE Plus V.2 SN067503 RLU meter with Hygenia AquaSnap TOTAL ATP Water Test Cat #U143 Lot #153019. Culturing media was Hardy Diagnostics Buffered Peptone Water Lot #118272. Samples were prepared with the nanoparticle treatments and then diluted with the media to provide the tested concentrations. The test organism (Microbiologics, E. coli, KwikStik, ATCC #51813, Ref #0791 K, Lot #791-1-6) was incubated in fresh Buffered Peptone Water growth media for 24 hours prior to exposure to the nanoparticle treatments.

O=[N+]([O-])[O-].[Ag+] [AgNO3 Silver Nitrate, silver nitrate]
RLU Counts at 12 Hours Post Exposure (0.25 ppm (mg/L)): 80 RLU
RLU Counts at 24 Hours Post Exposure (0.25 ppm (mg/L)): 25 RLU
RLU Counts at 12 Hours Post Exposure (0.5 ppm (mg/L)): 75 RLU
RLU Counts at 24 Hours Post Exposure (0.5 ppm (mg/L)): 46 RLU
RLU Counts at 12 Hours Post Exposure (1.0 ppm (mg/L)): 84 RLU
RLU Counts at 24 Hours Post Exposure (1.0 ppm (mg/L)): 30 RLU
